Source: ChEMBL document CHEMBL3244086, “A new class of antimalarial drugs: derivatives of benzothiopyrans” (J Med Chem, 1978)
The source made the active and inactive calls. No cut-off for these calls is given here.

Key:
Plasmodium berghei [1] = experiment: Antimalarial activity against Plasmodium berghei infected in mouse assessed as host survival time at 640 mg/kg, sc treated after 3 days of infection (reference value: 6.2 +/- 0.5 days); type: functional
Plasmodium gallinaceum [2] = experiment: Antimalarial activity against Plasmodium gallinaceum B infected in chick assessed as host survival time at 320 mg/kg, sc treated immediately after infection; type: functional
Plasmodium berghei [3] = experiment: Antimalarial activity against Plasmodium berghei infected in mouse assessed as host survival time at 320 mg/kg, sc treated after 3 days of infection (reference value: 6.2 +/- 0.5 days); type: functional
Plasmodium gallinaceum [4] = experiment: Antimalarial activity against Plasmodium gallinaceum B infected in chick assessed as host survival time at 120 mg/kg, sc treated immediately after infection; type: functional, organism-based; design: dose 120 mg/kg
Plasmodium berghei [5] = experiment: Antimalarial activity against Plasmodium berghei infected in mouse assessed as host cured at 320 to 640 mg/kg, sc treated after 3 days of infection; type: functional, organism-based
Plasmodium berghei [6] = experiment: Antimalarial activity against Plasmodium berghei infected in mouse assessed as host survival time at 160 mg/kg, sc treated after 3 days of infection (reference value: 6.2 +/- 0.5 days); type: functional; conditions: route subcutaneous
Plasmodium gallinaceum [7] = experiment: Antimalarial activity against Plasmodium gallinaceum B infected in chick assessed as host survival time at 160 mg/kg, sc treated immediately after infection; type: functional
Mus musculus = experiment: Toxicity in mouse at 640 mg/kg, sc; type: organism-based; design: dose 640 mg/kg, route subcutaneous; conditions: in vivo
Gallus gallus [8] = experiment: Toxicity in chick at 320 mg/kg, sc; type: organism-based; design: dose 320 mg/kg, route subcutaneous; conditions: chicken, in vivo
Gallus gallus [9] = experiment: Toxicity in chick at 120 mg/kg, sc; type: organism-based; design: dose 120 mg/kg, route subcutaneous; conditions: chicken, in vivo
Plasmodium gallinaceum [10] = experiment: Antimalarial activity against Plasmodium gallinaceum B infected in chick assessed as host survival time at 80 mg/kg, sc treated immediately after infection; type: functional, organism-based; design: dose 80 mg/kg
Gallus gallus [11] = experiment: Toxicity in chick at 160 mg/kg, sc; type: organism-based; design: dose 160 mg/kg, route subcutaneous; conditions: chicken, in vivo

Structure (SMILES): Clc1ccc(-c2c/c(=N\CCCN3CCOCC3)c3cc(Br)ccc3s2)cc1Cl
- MST (Plasmodium berghei [1]; route subcutaneous): 10.5 days
- MST (Plasmodium gallinaceum [2]): inactive

Structure (SMILES): CCN(CC)CCC/N=c1\cc(-c2ccccc2)sc2ccc(Cl)cc12.NS(=O)(=O)O
- MST (Plasmodium berghei [1]; route subcutaneous): 10.3 days
- MST (Plasmodium berghei [3]; route subcutaneous): 9.1 days
- MST (Plasmodium gallinaceum [2]): inactive

Structure (SMILES): OCCN1CCN(CC/N=c2\cc(-c3ccc(Cl)cc3)sc3ccc(Cl)cc23)CC1
- MST (Plasmodium berghei [1]): inactive
- MST (Plasmodium gallinaceum [2]): inactive

Structure (SMILES): CCN(CC)CCCC(C)/N=c1\cc(-c2ccc(Cl)c(Cl)c2)sc2ccc(OC)cc12 (centres undefined)
- MST (Plasmodium gallinaceum [4]): inactive

Structure (SMILES): CCN(CC)CCCC(C)/N=c1\cc(-c2ccccc2)sc2ccc(Br)cc12.Cl (centres undefined)
- Activity (Plasmodium berghei [5]): Active
- MST (Plasmodium berghei [6]): 9.5 days
- MST (Plasmodium gallinaceum [7]): inactive

Structure (SMILES): Clc1ccc2sc(-c3ccccc3)c/c(=N\CCN3CCCC3)c2c1
- MST (Plasmodium berghei [1]): inactive

Structure (SMILES): CN(C)CCC/N=c1\cc(-c2ccc(Cl)cc2)sc2ccc(Cl)cc12
- Activity (Plasmodium berghei [5]): Active
- MST (Plasmodium berghei [3]; route subcutaneous): 9.8 days
- MST (Plasmodium berghei [6]): 7 days
- MST (Plasmodium gallinaceum [2]; route subcutaneous): 4.4 days
- MST (Plasmodium gallinaceum [7]; route subcutaneous): 3.4 days

Structure (SMILES): NCCC/N=c1\cc(-c2ccccc2)sc2ccc(Cl)cc12
- MST (Plasmodium berghei [1]): inactive

Structure (SMILES): CN1CCN(CCC/N=c2\cc(-c3ccc(Cl)cc3)sc3ccc(Br)cc23)CC1
- MST (Plasmodium berghei [3]): inactive
- MST (Plasmodium gallinaceum [7]): inactive

Structure (SMILES): Cl.OCCN1CCN(CCCC/N=c2\cc(-c3ccc(Cl)cc3)sc3ccc(Cl)cc23)CC1
- MST (Plasmodium berghei [1]; route subcutaneous): 7.9 days
- MST (Plasmodium berghei [3]; route subcutaneous): 7.4 days
- Activity (Mus musculus): Toxic
- Activity (Gallus gallus [8]): Toxic

Structure (SMILES): CN1CCCC1CC/N=c1\cc(-c2ccc(Cl)c(Cl)c2)sc2ccc(F)cc12 (centres undefined)
- MST (Plasmodium berghei [1]): inactive
- MST (Plasmodium gallinaceum [2]): inactive

Structure (SMILES): Clc1ccc(-c2c/c(=N\CCCCC3CCCCC3)c3cc(Cl)ccc3s2)cc1
- MST (Plasmodium berghei [1]): inactive
- MST (Plasmodium gallinaceum [2]): inactive

Structure (SMILES): CCN(CC)CCCC(C)/N=c1\cc(-c2ccc(F)cc2)sc2ccc(F)cc12.Cl (centres undefined)
- MST (Plasmodium berghei [1]): inactive
- Activity (Gallus gallus [9]): Toxic

Structure (SMILES): CN(C)CC/N=c1\cc(-c2ccccc2)sc2ccc(Cl)cc12
- MST (Plasmodium berghei [1]): inactive

Structure (SMILES): CCN(CC)CCCC(C)/N=c1\cc(-c2ccc(Cl)cc2)sc2ccc(Br)cc12.Cl (centres undefined)
- MST (Plasmodium berghei [3]): inactive
- MST (Plasmodium gallinaceum [7]; route subcutaneous): 5 days

Structure (SMILES): CN(C)CCC/N=c1\cc(-c2ccccc2)sc2ccc(Cl)cc12.Cl.O
- MST (Plasmodium berghei [1]; route subcutaneous): 13.6 days

Structure (SMILES): N=C(N)N/N=c1\cc(-c2ccccc2)sc2ccc(Cl)cc12
- MST (Plasmodium berghei [1]; route subcutaneous): 6.2 days

Structure (SMILES): CCN(CC)CCCC(C)/N=c1\cc(-c2ccc(Cl)cc2)sc2ccccc12.Cl (centres undefined)
- MST (Plasmodium berghei [3]): inactive
- MST (Plasmodium gallinaceum [10]): inactive
- Activity (Mus musculus): Toxic
- Activity (Gallus gallus [11]): Toxic

Structure (SMILES): CN1CCN(CCC/N=c2\cc(-c3ccc(Cl)cc3)sc3ccccc23)CC1
- MST (Plasmodium berghei [3]; route subcutaneous): 6.9 days

Structure (SMILES): Clc1ccc2sc(-c3ccccc3)c/c(=N\C3CN4CCC3CC4)c2c1 (centres undefined)
- MST (Plasmodium berghei [1]): inactive
- MST (Plasmodium gallinaceum [2]): inactive

Structure (SMILES): CCN(CC)CCCC(C)/N=c1\cc(-c2ccc(Cl)c(Cl)c2)sc2ccc(Br)cc12 (centres undefined)
- MST (Plasmodium berghei [3]): inactive
- MST (Plasmodium gallinaceum [7]): inactive

Structure (SMILES): CCN(CC)CCCC(C)/N=c1\cc(-c2ccc(Cl)c(Cl)c2)sc2ccc(F)cc12 (centres undefined)
- MST (Plasmodium berghei [1]): inactive
- MST (Plasmodium gallinaceum [4]): inactive

Structure (SMILES): Clc1ccc2sc(-c3ccccc3)c/c(=N\c3cccnc3)c2c1
- MST (Plasmodium berghei [3]): inactive
- MST (Plasmodium gallinaceum [2]): inactive

Structure (SMILES): CN(C)CCC/N=c1\cc(-c2ccccc2)sc2ccc(Br)cc12.Cl
- MST (Plasmodium berghei [3]; route subcutaneous): 12.6 days

Structure (SMILES): CCN(CC)CCCC(C)/N=c1\cc(C23CC4CC(CC(C4)C2)C3)sc2ccc(Cl)cc12.Cl (centres undefined)
- MST (Plasmodium berghei [1]): inactive
- MST (Plasmodium gallinaceum [7]): inactive
- Activity (Gallus gallus [11]): Toxic

Structure (SMILES): Cl.Clc1ccc2sc(-c3ccccc3)c/c(=N\CCCN3CCOCC3)c2c1
- MST (Plasmodium berghei [1]; route subcutaneous): 6.8 days

Structure (SMILES): Clc1ccc2sc(-c3ccccc3)c/c(=N\C34CC5CC(CC(C5)C3)C4)c2c1
- MST (Plasmodium berghei [1]): inactive
- MST (Plasmodium gallinaceum [2]): inactive

Structure (SMILES): CN1CCN(CCC/N=c2\cc(-c3ccccc3)sc3ccc(Cl)cc23)CC1
- MST (Plasmodium berghei [3]; route subcutaneous): 7.3 days
- MST (Plasmodium gallinaceum [2]): inactive

Structure (SMILES): CCN(CC)CCCC(C)/N=c1\cc(-c2ccc(F)cc2)sc2ccc(Br)cc12.Cl (centres undefined)
- MST (Plasmodium berghei [1]; route subcutaneous): 10.1 days
- MST (Plasmodium berghei [3]; route subcutaneous): 6.9 days
- MST (Plasmodium gallinaceum [7]): inactive
- Activity (Gallus gallus [8]): Toxic

Structure (SMILES): CN(C)CCC/N=c1\cc(-c2ccc(Cl)cc2)sc2ccccc12.Cl
- Activity (Plasmodium berghei [5]): Active
- Activity (Mus musculus): Toxic

Structure (SMILES): Clc1ccc(-c2c/c(=N\Cc3ccccn3)c3cc(Cl)ccc3s2)cc1
- MST (Plasmodium berghei [3]): inactive
- MST (Plasmodium gallinaceum [2]): inactive

Structure (SMILES): CCN(CC)CCCC(C)/N=c1\cc(-c2ccccc2)sc2ccc(Cl)cc12.Cl (centres undefined)
- Activity (Plasmodium berghei [5]): Active
- MST (Plasmodium berghei [3]; route subcutaneous): 10.6 days
- MST (Plasmodium berghei [6]): 8 days
- Activity (Gallus gallus [8]): Toxic

Structure (SMILES): OCCN1CCN(CCCC/N=c2\cc(C34CC5CC(CC(C5)C3)C4)sc3ccc(Br)cc23)CC1
- MST (Plasmodium berghei [3]): inactive
- MST (Plasmodium gallinaceum [4]): inactive
- Activity (Gallus gallus [9]): Toxic

Structure (SMILES): CN1CCN(CCC/N=c2\cc(-c3ccc(Cl)cc3)sc3ccc(Cl)cc23)CC1
- Activity (Plasmodium berghei [5]): Active
- MST (Plasmodium berghei [3]; route subcutaneous): 11.2 days
- MST (Plasmodium berghei [6]): 6.2 days
- MST (Plasmodium gallinaceum [2]; route subcutaneous): 3.4 days

Structure (SMILES): Cl.Clc1ccc(-c2c/c(=N\CCCN3CCCCC3)c3cc(Cl)ccc3s2)cc1
- MST (Plasmodium berghei [1]): inactive
- MST (Plasmodium gallinaceum [2]; route subcutaneous): 5.2 days

Structure (SMILES): CN1CCCC1CC/N=c1\cc(-c2ccccc2)sc2ccc(Cl)cc12 (centres undefined)
- MST (Plasmodium berghei [3]; route subcutaneous): 7 days

Structure (SMILES): Clc1ccc2sc(-c3ccccc3)c/c(=N\CCCCC3CCCCC3)c2c1
- MST (Plasmodium berghei [1]): inactive
- MST (Plasmodium gallinaceum [2]): inactive

Structure (SMILES): CCN(CC)CCCC(C)/N=c1\cc(-c2ccc(Cl)cc2)sc2ccc(Cl)cc12.Cl (centres undefined)
- MST (Plasmodium berghei [1]): inactive
- MST (Plasmodium gallinaceum [2]; route subcutaneous): 4.7 days

Structure (SMILES): O=C(NCCC/N=c1\cc(-c2ccccc2)sc2ccc(Cl)cc12)OCc1ccccc1
- MST (Plasmodium berghei [1]): inactive
